Laboratory results reported in patent US7087375B1, “Method for determining the mechanism of HIV RT inhibitors” (priority 2000, dated 2006).
Where “and” joins values, the source holds several entries; their conditions need not be identical. Equal entries are not always repeated. Where two headings read alike, the source gives them in different places. Marks after values point to notes of the source that are not given here.

Columns and labels:
[1] = test system: HXB2 site-directed mutant M41L, T215Y; format: cell-based; settings: virus M41L
[2] = test system: HXB2 site-directed mutant D67N, K70R; format: cell-based; settings: virus D67N
[3] = test system: HXB2 site-directed mutant M41L, M184V, T215Y; format: cell-based; settings: virus M41L
[4] = test system: HXB2 site-directed mutant M41L, D67N, K70R, M184V, T215Y; format: cell-based; settings: virus M41L
[5] = test system: HXB2 site-directed mutant T69S-SS; format: cell-based; settings: virus T69S-SS
[6] = test system: HXB2 site-directed mutant M41L, T69S-SS, T215Y; format: cell-based; settings: virus M41L
[7] = test system: HXB2 site-directed mutant T69S-SG; format: cell-based; settings: virus T69S-SG
[8] = test system: HXB2 site-directed mutant M41L, T69S-SG, T215Y; format: cell-based; settings: virus M41L
[9] = test system: HXB2 site-directed mutant T69S-AG; format: cell-based; settings: virus T69S-AG
[10] = test system: HXB2 site-directed mutant M41L, T69S-AG, T215Y; format: cell-based; settings: virus M41L
wild type HXB2 virus = experiment: HIV drug susceptibility assay (recombinant virus, MT-4 cells)
Protocol: Phenotypic susceptibility of these viable recombinant viruses to nucleoside analogs was then determined. […] Fold resistance values were calculated by dividing the mean 50% inhibitory concentration (IC50) for a recombinant virus from a mutant clone by the mean IC50 for recombinant wild type virus (HXB2).

[11] = target: T1, HIV-1 RT wild type (HXB2) (Human immunodeficiency virus type 1 group M subtype B, UniProt P04585); format: biochemical; settings: for Fold resistance in RT-assay relative to HXB2: wild type HXB2 RT (reference); for Ki / Ki/Km: wild type HXB2 RT
T1 construct: The final RT products, in a heterodimeric form (p66/p51); made in house; host or cells: E. coli XL1-Blue (vector pKK233-2)

HIV-1 RT mutant 41/215 = HIV-1 RT mutant 41/215 (Human immunodeficiency virus type 1 group M subtype B, UniProt P04585, M628L/T802Y); experiment: RT inhibition assay (Lenti RT, polyrA/oligo(dT), BrdUTP); format: biochemical; settings: 41/215 RT
[12] = target: T2, HIV-1 RT mutant 41/184/215 (Human immunodeficiency virus type 1 group M subtype B, UniProt P04585, M628L/M771V/T802Y); format: biochemical; settings: 41/184/215 RT
T2 construct: The final RT products, in a heterodimeric form (p66/p51); made in house; host or cells: E. coli XL1-Blue (vector pKK233-2)

[13] = target: T3, HIV-1 RT mutant 41/67/70/215 (Human immunodeficiency virus type 1 group M subtype B, UniProt P04585, D654N/K657R/M628L/T802Y); format: biochemical; settings: 41/67/70/215 RT
T3 construct: The final RT products, in a heterodimeric form (p66/p51); made in house; host or cells: E. coli XL1-Blue (vector pKK233-2)

[14] = target: T4, HIV-1 RT mutant 41/67/70/184/215 (Human immunodeficiency virus type 1 group M subtype B, UniProt P04585, D654N/K657R/M628L/M771V/T802Y); format: biochemical; settings: 41/67/70/184/215 RT
T4 construct: The final RT products, in a heterodimeric form (p66/p51); made in house; host or cells: E. coli XL1-Blue (vector pKK233-2)

[15] = target: T5, HIV-1 RT mutant 41/67/70/184/210/211/214/215 (Human immunodeficiency virus type 1 group M subtype B, UniProt P04585, D654N/K657R/L797W/L801F/M628L/M771V/R798K/T802Y); format: biochemical; settings: 41/67/70/184/210/211/214/215 RT
T5 construct: The final RT products, in a heterodimeric form (p66/p51); made in house; host or cells: E. coli XL1-Blue (vector pKK233-2)

HIV-1 RT mutant 69S-SS = target: T6, HIV-1 RT mutant 69S-SS (Human immunodeficiency virus type 1 group M subtype B, UniProt P04585, INS655SS/T656S); format: biochemical; settings: 69S-SS RT
T6 construct: The final RT products, in a heterodimeric form (p66/p51); made in house; host or cells: E. coli XL1-Blue (vector pKK233-2)

[16] = target: T7, HIV-1 RT mutant 41/69S-SS/215 (Human immunodeficiency virus type 1 group M subtype B, UniProt P04585, INS655SS/M628L/T656S/T802Y); format: biochemical; settings: 41/69S-SS/215 RT
T7 construct: The final RT products, in a heterodimeric form (p66/p51); made in house; host or cells: E. coli XL1-Blue (vector pKK233-2)

HIV-1 RT mutant 69S-SG = target: T8, HIV-1 RT mutant 69S-SG (Human immunodeficiency virus type 1 group M subtype B, UniProt P04585, INS655SS/T656G/T656S); format: biochemical; settings: 69S-SG RT
T8 construct: The final RT products, in a heterodimeric form (p66/p51); made in house; host or cells: E. coli XL1-Blue (vector pKK233-2)

HIV-1 RT mutant 69S-AG = target: T9, HIV-1 RT mutant 69S-AG (Human immunodeficiency virus type 1 group M subtype B, UniProt P04585, INS655SA/T656G/T656S); format: biochemical; settings: 69S-AG RT
T9 construct: The final RT products, in a heterodimeric form (p66/p51); made in house; host or cells: E. coli XL1-Blue (vector pKK233-2)

[17] = no extra additions (without ATP)
[18] = nontreated pyrophosphatase ATP 3.2 mM (control), single experiment
[19] = pyrophosphatase treated ATP 3.2 mM, single experiment

## Cc1cn([C@H]2C=C[C@@H](CO)O2)c(=O)[nH]c1=O [d4T, stavudine]
[1]
  Fold resistance in IC50 relative to HXB2: 2.6 fold
[2]
  Fold resistance in IC50 relative to HXB2: 5.1 fold
[3]
  Fold resistance in IC50 relative to HXB2: 2.2 fold
[4]
  Fold resistance in IC50 relative to HXB2: 3.7 fold and 3.7 +/− 1.0 fold
[5]
  Fold resistance in IC50 relative to HXB2: 4.4 fold
[6]
  Fold resistance in IC50 relative to HXB2: 7.1 fold
[7]
  Fold resistance in IC50 relative to HXB2: 4.4 fold and 4.4 +/− 1.1 fold
[8]
  Fold resistance in IC50 relative to HXB2: 4.0 fold
[9]
  Fold resistance in IC50 relative to HXB2: 6.9 fold and 6.9 +/− 2.7 fold
[10]
  Fold resistance in IC50 relative to HXB2: 3.1 fold
Wild type HXB2 virus; Human immunodeficiency virus 1, HXB2, MT4, read-out: mean IC50 for the wild type control virus
  IC50: 1200 nM
Wild type HXB2 virus; wild type HXB2 virus (reference)
  Virus Assay fold resistance: 1.0 fold

## AZT-TP
[11]; ATP 3.2 mM
  Fold resistance in RT-assay relative to HXB2: 1.0 fold
  Ki: 10 nM
  Ki/Km: 0.032
[11]; without ATP
  Fold resistance in RT-assay relative to HXB2: 1.0 fold
[11]; ATP 3.2 mM + PPi 150 μM
  Ki: 59 nM
  Ki/Km: 0.11
[11]; ATP 6.0 mM
  Ki: 40 nM
  Ki/Km: 0.049
[11]; ATP […]
  Ki: 4.8 nM
  Ki/Km: 0.02
[11]; GTP 0.5 mM
  Ki: 9 nM
  Ki/Km: 0.028
[11]; PPi 150 μM
  Ki: 26 nM
  Ki/Km: 0.087
[11]; [17]
  Ki: 5.8 nM
  Ki/Km: 0.034
HIV-1 RT mutant 41/215; ATP 3.2 mM
  Fold resistance in RT-assay relative to HXB2: 3 fold and 2.9 fold
  Ki: 34 nM
  Ki/Km: 0.094
HIV-1 RT mutant 41/215; GTP 0.5 mM
  level of resistance in RT assay relative to wild type: 1.2–1.3 fold
HIV-1 RT mutant 41/215; PPi 150 μM
  level of resistance in RT assay relative to wild type: 1.1 fold
HIV-1 RT mutant 41/215; without ATP
  Fold resistance in RT-assay relative to HXB2: 0.8 fold
  Ki: 3 nM
  Ki/Km: 0.027
[12]; ATP 3.2 mM
  Fold resistance in RT-assay relative to HXB2: 5.9 fold
  Ki/Km: 0.19
[12]; without ATP
  Fold resistance in RT-assay relative to HXB2: 1.3 fold
  Ki: 2.2 nM
  Ki/Km: 0.045
[13]; ATP 3.2 mM
  Fold resistance in RT-assay relative to HXB2: 16.6 fold and 16.6 (+/−0.3) fold
  Ki: 39 nM
  Ki/Km: 0.53
[13]; ATP 3.2 mM + PPi 150 μM
  Fold resistance in RT-assay relative to HXB2: 12.6 fold and 12.6 (+/−3) fold
  Ki: 280 nM
  Ki/Km: 1.39
[13]; ATP 6.0 mM
  Fold resistance in RT-assay relative to HXB2: 15.9 (+/−4) fold
  Ki: 176 nM
  Ki/Km: 0.78
[13]; ATP […]
  Ki: 6.4 nM
  Ki/Km: 0.1
[13]; GTP 0.5 mM
  Fold resistance in RT-assay relative to HXB2: 1.2 (+/−0.03) fold
  Ki: 4 nM
  Ki/Km: 0.034
[13]; PPi 150 μM
  Fold resistance in RT-assay relative to HXB2: 10.5 fold and 10.5 (+/−3) fold
  Ki: 83 nM
  Ki/Km: 0.92
[13]; [17]
  Fold resistance in RT-assay relative to HXB2: 0.9 fold and 0.9 (+/−0.1) fold
  Ki/Km: 0.03
[13]; [18]
  Ki: 20 nM
  Ki/Km: 0.46*
[13]; [19]
  Ki: 16 nM
  Ki/Km: 0.42*
[14]; ATP 3.2 mM
  Fold resistance in RT-assay relative to HXB2: 4.1 fold
  Ki: 50 nM
  Ki/Km: 0.13
[14]; without ATP
  Fold resistance in RT-assay relative to HXB2: 0.3 fold
  Ki: 0.6 nM
  Ki/Km: 0.01
[15]; ATP 3.2 mM
  Fold resistance in RT-assay relative to HXB2: 2.8 fold
  Ki: 52 nM
  Ki/Km: 0.09
[15]; without ATP
  Fold resistance in RT-assay relative to HXB2: 0.3 fold
  Ki: 1.3 nM
  Ki/Km: 0.011
HIV-1 RT mutant 69S-SS; ATP 3.2 mM
  Fold resistance in RT-assay relative to HXB2: 3.0 fold
  Ki: 21 nM
  Ki/Km: 0.095
HIV-1 RT mutant 69S-SS; without ATP
  Fold resistance in RT-assay relative to HXB2: 0.8 fold
  Ki: 1.7 nM
  Ki/Km: 0.026
[16]; ATP 3.2 mM
  Fold resistance in RT-assay relative to HXB2: 20 fold and 19.7 fold
  Ki: 133 nM
  Ki/Km: 0.63
[16]; without ATP
  Fold resistance in RT-assay relative to HXB2: 0.9 fold
  Ki: 1.4 nM
  Ki/Km: 0.031
HIV-1 RT mutant 69S-SG; ATP 3.2 mM
  Fold resistance in RT-assay relative to HXB2: 8.4 fold
  Ki: 96 nM
  Ki/Km: 0.27
HIV-1 RT mutant 69S-SG; without ATP
  Fold resistance in RT-assay relative to HXB2: 1.1 fold
  Ki: 3.8 nM
  Ki/Km: 0.038
HIV-1 RT mutant 69S-AG; ATP 3.2 mM
  Fold resistance in RT-assay relative to HXB2: 14.0 fold
  Ki: 125 nM
  Ki/Km: 0.45
HIV-1 RT mutant 69S-AG; GTP 0.5 mM
  level of resistance in RT assay relative to wild type: 1.2–1.3 fold
HIV-1 RT mutant 69S-AG; PPi 150 μM
  level of resistance in RT assay relative to wild type: 3.3
HIV-1 RT mutant 69S-AG; without ATP
  Fold resistance in RT-assay relative to HXB2: 1.9 fold
  Ki: 6.4 nM
  Ki/Km: 0.064
